The subject of experiment [1] is α-Glucosidase (Saccharomyces cerevisiae). As to the kind of experiment: Mutual exclusivity study (Yonetani-Theorell). The class given is biochemical. To be noted: combination of ECG with EGCG, Equation (8). The procedure:
Mutual exclusivity studies were performed by measuring the reaction velocity at several fixed concentrations of one investigated compound while titrating another tested compound with various concentrations, and data were evaluated by the method (Equation (8)) proposed by Yonetanii and Theorell that yielded a value of β for different noncompetitive inhibition by nonlinear regression analysis. (8) 1/vij=1/v0×(1+[I]/Ki+[J]/Kj+[I][J]/βKiKj) where vij is the enzyme velocity in the presence of both compounds at concentrations [I] and [J]; v0 is the velocity in the absence of compound; β is an interaction constant that defines the degree to which binding of one compound perturbs the affinity of the enzyme for the second compound.

The test system is the same in experiment [2]. As to the kind of experiment: Steady-state velocity fit and double reciprocal plot (inhibition type). It is filed as biochemical. As to conditions: for constant α: Equation (2), noncompetitive inhibition; for type of inhibition: double reciprocal plot; for Ki: steady-state velocity fit, read-out: free AGH binding inhibition constant (Ki). On the procedure:
The reaction progress of AGH inhibition by ECG was measured under the pseudo-first-order conditions ([I], initiated by the addition of 50 μL AGH to 300 μL of a mixture of tested compound and substrate and monitor the liberation of free pNP at 405 nm. The final pNPG concentrations ranged from 0.18 to 1.44 mM. The compound investigated concentrations were 0, 0.7, 1.4, 2.8, 5.6, 11.2 μM. The reading was recorded every 20 s during 4000 s and blank absorbance values were subtracted from the data before subsequent calculations. Similar experiments were performed with EGCG to measure its reaction progress curve. Progress curves were fitted to the equation (Equation (1)) described by Williams and Morrison to calculate kobs values for slow binding (i.e., time-dependent) inhibition. (1) A=vs×t+(vi−vs)(1−e^−kobs×t/kobs)+A0 where A is the absorbance; vi and vs are initial and steady-state velocities (expressed in A/time), respectively; t is time; kobs is the pseudo first order rate constant for the approach to steady-state and A0 is the initial blank absorbance at 405 nm. In order to determine inhibition modality and calculate inhibition constants obtained, steady-state rates from progress curves were subsequently fitted to the following steady-state velocity equation (Equation (2)) described by Robert A. Copeland [34] for noncompetitive inhibition:(2) v=vmax×[S]/[S]×(1+[I]/αKi)+Km×(1+[I]/Ki) where v is velocity; Vmax refers to the maximum velocity; [I] is concentration of inhibition; Km refers to Michaelis constant; α is constant.
The inhibition type of the tested compounds against AGH was determined using a double reciprocal plot of 1/v as a function of 1/[S] in terms of intersecting lines converging to the location of the y-axis and the x-axis.

For experiment [3] the test system is unchanged. In words: Binding kinetics by reaction progress curve analysis. As to conditions: for binding mechanism: kobs versus concentration hyperbolic; for Dissociation Half-Life: ln2 divided by koff (progress curve); for time dependence of inhibition: preincubation and progress curves; for Ki: read-out: Ki* (final equilibrium dissociation constant, true affinity). The class given is biochemical. An excerpt:
Progress curves were fitted to the equation (Equation (1)) described by Williams and Morrison to calculate kobs values for slow binding (i.e., time-dependent) inhibition. (1) A=vs×t+(vi−vs)(1−e^−kobs×t/kobs)+A0 where A is the absorbance; vi and vs are initial and steady-state velocities (expressed in A/time), respectively; t is time; kobs is the pseudo first order rate constant for the approach to steady-state and A0 is the initial blank absorbance at 405 nm. In order to determine inhibition modality and calculate inhibition constants obtained, steady-state rates from progress curves were subsequently fitted to the following steady-state velocity equation (Equation (2)) described by Robert A. Copeland [34] for noncompetitive inhibition:(2) v=vmax×[S]/[S]×(1+[I]/αKi)+Km×(1+[I]/Ki) where v is velocity; Vmax refers to the maximum velocity; [I] is concentration of inhibition; Km refers to Michaelis constant; α is constant.
(3) kobs=k4+(k3×[I]/Kiapp+[I]) (4) kon=k3/Ki (5) koff=k4 (6) Ki*=Ki/1+k3/k4 where k3 is forward enzyme isomerization rate constant; k4 is reverse enzyme isomerization rate constant, Ki^app is the apparent value of the Ki for the initial encounter complex. Ki was estimated using the following Cheng-prusoff equation (Equation (7)) as described previously for noncompetitive inhibition:(7) Kiapp=Ki×(1+[S]/Km)/((1+α)×([S]/Km))

The target of experiment [4] is α-Glucosidase (Saccharomyces cerevisiae). As to the kind of experiment: IC50 determination, AGH enzyme inhibition assay (pNPG substrate). As to conditions: 15 min preincubation at 37 °C, 0.36 mM pNPG, mean ± SEM of three experiments. It is filed as biochemical. The procedure: Steady-state kinetic studies were carried out on a Multiskan FC Devices. The AGH activity was assayed by adding 50 μL of AGH solution to 300 μL of substrate solution (pNPG was used as the substrate) in 0.1 M PBS buffer (pH 6.8), followed by incubation at 37 °C for 30 min. The AGH activity was measured by monitoring an increase of the p-nitrophenol (pNP) released from substrate pNPG in absorbance at 405 nm.
AGH was preincubated with two tea polyphenols for 15 min at 37 °C, respectively. The reaction was started by the addition of the pNPG (0.36 mM final concentration), and the initial rate was measured by ultraviolet (UV) detector. Linearity of UV response was confirmed with correlation coefficients (R^2) of > 0.99. Data were the means ± standard error of the mean (SEM) of three independent experiments, and were fitted using standard four-parameter logistic models to measure IC50 values by JMP software (version 11.0.0, SAS Institute, Inc., Cary, NC, USA).

The subject of experiment [5] is α-Glucosidase (Saccharomyces cerevisiae). In words: Surface plasmon resonance (SPR) binding kinetics, immobilized AGH. As to conditions: 25 °C, 1:1 Langmuir model. On the procedure:
Surface plasmon resonance (SPR) experiments were performed to measure the BK parameters between compounds and AGH. After the activation of the surface using NHS and EDC (1:1, v/v), the AGH was immobilized on a CM5 sensor chip (GE healthcare) by using standard amine-coupling at 25 °C with running buffer PBS-P (20 mM phosphate buffer, […], 0.05% surfactant P-20, pH 7.4). The AGH concentration was fixed at 50 ng/µL and the immobilization level of AGH was about 8000 RU (response unit, 1 RU response value is roughly equivalent to 1 pg/mm^2 change of the concentration of the bound substance on the chip surface). After coupling, unreacted NHS ester groups were blocked with ethanolamine. Different concentrations of compounds containing 5% DMSO were serially injected into the channel to evaluate the BK parameters. A reference channel was only activated and blocked to eliminate compound unspecific binding to the surface of the chip. An extra wash with 50% DMSO was added to remove the last remaining sample in the pipeline. The on-rates and the off-rates of the compounds were obtained by fitting the data sets to 1:1 Langmuir binding model using the Biacore T200 Evaluation Software (GE Healthcare).

For experiment [6] the test system is unchanged. As to the kind of experiment: Off-rate by rapid dilution approach. The class given is biochemical.
Experimental: Among these BK parameters, the off-rate value of acarbose was determined by applying the rapid dilution approaches, which were readily available from the references [35, 49].
The mark [7] stands for this setting: progress curve analysis, two-step induced-fit model.

Data on three molecules can be found in paper PMC6770063, “Utilizing the Combination of Binding Kinetics and Micro-Pharmacokinetics Link in Vitro α-Glucosidase Inhibition to in Vivo Target Occupancy” (Biomolecules, 2019).

Take `O=C(O[C@@H]1Cc2c(O)cc(O)cc2O[C@@H]1c1ccc(O)c(O)c1)c1cc(O)c(O)c(O)c1` [ECG, Epicatechin gallate]: in experiment [1], the “β-value (interaction constant)” value is given as 4133197. In experiment [2], the “constant α” value is 1.3, the type of inhibition result was “noncompetitive inhibitor” and the Ki (usually the equilibrium dissociation constant of an inhibitor or competing ligand from its target) was 1100 nM. Moreover, in experiment [3], the binding mechanism result is “two-step induced-fit mechanism”, the “Dissociation Half-Life” value was determined as 7.2 min and the “time dependence of inhibition” value is “slow binding inhibitor”. For the same molecule, in experiment [3] (setting [7]), the off-rate (koff) (as a rule, the first-order rate constant of dissociation) is given as 1.6 ± 0.3 10^−3 s^−1 and the kon (commonly the rate constant with which the complex forms) is given as 0.2 ± 0.05 10^3 M^−1s^−1. Also, the Ki in experiment [3] (progress curve analysis) was determined as 1000 ± 300 nM. Further, in experiment [4], the concentration for half-maximal inhibition (IC50) – broadly, the concentration at which inhibition is half-maximal – turned out to be 1500 ± 300 nM. In addition, in experiment [5], the koff was determined as 0.0073 s⁻¹ and the kon worked out at 6300 M⁻¹ s⁻¹.

Turning to `C[C@H]1O[C@H](O[C@H]2[C@H](O)[C@@H](O)[C@@H](O[C@H]3[C@H](O)[C@@H](O)C(O)O[C@@H]3CO)O[C@@H]2CO)[C@H](O)[C@@H](O)[C@@H]1N[C@H]1C=C(CO)[C@@H](O)[C@H](O)[C@H]1O` (some centres unmarked) [Acarbose, acarbose], the kon in experiment [3] (acarbose, Supplementary Table S2) was 2.1 ± 0.3 10^6 M^−1s^−1. In experiment [6] (ln2 divided by koff (rapid dilution)), the “Dissociation Half-Life” value came out at 606 min. In experiment [6] (rapid dilution approach), the off-rate constant (koff) is 1.9 ± 0.2 10^−5 s^−1.

Turning to `O=C(O[C@@H]1Cc2c(O)cc(O)cc2O[C@@H]1c1cc(O)c(O)c(O)c1)c1cc(O)c(O)c(O)c1` [EGCG, epigallocatechin gallate], the “β-value (interaction constant)” value in experiment [1] is recorded as 4133197. Further, in experiment [2], the “constant α” value worked out at 5.6, the type of inhibition entry is on record as “noncompetitive inhibitor” and the Ki stood at 200 nM. For the same molecule, in experiment [3], the binding mechanism result is “two-step induced-fit mechanism”, the “Dissociation Half-Life” value stood at 6 min and the “time dependence of inhibition” value is “slow binding inhibition”. Moreover, in experiment [3] (setting [7]), the dissociation rate constant (koff) is 1.9 ± 0.2 10^−3 s^−1 and the kon is recorded as 2.4 ± 0.3 10^3 M^−1s^−1. The Ki in experiment [3] (progress curve analysis) was determined as 160 ± 30 nM. The concentration for half-maximal inhibition (IC50) in experiment [4] was 410 ± 100 nM. In experiment [5], this molecule displayed an off-rate (koff) of 0.0038 s⁻¹ and a kon of 5700 M⁻¹ s⁻¹.
